These results are taken from US10231453B2, “5-substituted imidazole derivatives” (BAYER CROPSCIENCE AKTIENGESELLSCHAFT, priority 2015, dated 2019).

Each structure is given as a SMILES string.

The test system of one data set is Uromyces appendiculatus. Put plainly: In vivo preventive test on Uromyces appendiculatus (bean rust), Examples G and R7. The settings on record: 264 h, 500 ppm of active ingredient, bean, preventive spray, evaluated 11 days after inoculation, read-out: efficacy.
The test system of a further data set is Botrytis cinerea. The experiment in a line: In vivo preventive test on Botrytis cinerea (grey mould) on gherkin, Examples B, Q1 and R2. The settings on record: Botrytis cinerea, 500 ppm of active ingredient, preventive spray, evaluated 4 to 5 days after inoculation, read-out: efficacy.
The test system of a further data set is Puccinia recondita. The experiment in a line: In vivo preventive test on Puccinia recondita (brown rust on wheat), Examples C and R3. To be noted: Puccinia recondita, 264 h; 500 ppm of active ingredient; wheat, preventive spray, evaluated 11 days after inoculation; read-out: efficacy.
In a further data set the test system is Sphaerotheca fuliginea. The experiment in a line: In vivo preventive test on Sphaerotheca fuliginea (powdery mildew on cucurbits), Examples F and R6. The settings on record: Podosphaera fuliginea, 360 h; 500 ppm of active ingredient; gherkin, preventive spray, evaluated 15 days after inoculation; read-out: efficacy.
The next data set deals with Pyrenophora teres. The experiment in a line: In vivo preventive test on Pyrenophora teres (net blotch on barley), Examples D, Q2 and R4. To be noted: Pyrenophora teres, 336 h, 500 ppm of active ingredient, preventive spray, evaluated 14 days after inoculation, read-out: efficacy.
The subject of the next data set is Septoria tritici. Put plainly: In vivo preventive test on Septoria tritici (leaf spot on wheat), Examples E, Q3 and R5. To be noted: Zymoseptoria tritici, 576 h, 500 ppm of active ingredient; wheat, preventive spray, evaluated 24 days after inoculation; read-out: efficacy.
Data set [1] can be described thus: Measurement of LogP values by HPLC on reversed phase columns (EEC directive 79/831 Annex V.A8). Type of data set: physicochemical. The settings on record: method [a]: LC-UV, acidic range, 0.1% formic acid in water and acetonitrile as eluent; Table 1. As for the experimental part: Measurement of Log P values was performed as outlined above.

For the compound `OC(Cc1ccccc1Cl)(Cn1cncc1I)C1(Cl)CC1` (centres unmarked) [Example I-14], the pest or weed control at 500 ppm in the data set on Uromyces appendiculatus lay in the range of 90 to 100%; in the data set with Botrytis cinerea it was 90 to 100%; in the data set with Puccinia recondita, 80 to 89%; in the data set with Sphaerotheca fuliginea, 90 to 100%; with Pyrenophora teres it was 80 to 89%; in the data set on Septoria tritici, 90 to 100%. For the same compound, the chromatographic logP in data set [1] is 2.14.

Turning to `N#Cc1cncn1CC(O)(Cc1cccc(Br)c1)C1(Cl)CC1` (centres unmarked) [Example I-45], the pest or weed control at 500 ppm was in the range of 90 to 100% with Uromyces appendiculatus; 80 to 89% with Botrytis cinerea; 90 to 100% in the data set on Puccinia recondita; 90 to 100% in the data set on Sphaerotheca fuliginea; 80 to 89% in the data set with Pyrenophora teres; 90 to 100% in the data set on Septoria tritici.

Consider `Cc1ccccc1CC(O)(Cn1cncc1Cl)C1(Cl)CC1` (centres unmarked) [Example I-71], for which the pest or weed control at 500 ppm in the data set with Uromyces appendiculatus, in the data set on Botrytis cinerea, in the data set with Puccinia recondita, with Sphaerotheca fuliginea, in the data set with Pyrenophora teres and in the data set on Septoria tritici was 90 to 100% each time. This compound also displayed a chromatographic logP in data set [1] of 2.33.

As for `Cc1cccc(CC(O)(Cn2cncc2Cl)C2(Cl)CC2)c1` (centres unmarked) [Example I-73], the pest or weed control at 500 ppm in the data set on Botrytis cinerea is 90 to 100%; in the data set on Puccinia recondita, 80 to 89%; in the data set on Sphaerotheca fuliginea it was 90 to 100%; with Pyrenophora teres, 80 to 89%; in the data set on Septoria tritici, 80 to 89%.

On to `Cc1ccc(CC(O)(Cn2cncc2Cl)C2(Cl)CC2)cc1` (centres unmarked) [Example I-76], for which the pest or weed control at 500 ppm in the data set on Botrytis cinerea, in the data set on Puccinia recondita, in the data set on Sphaerotheca fuliginea, with Pyrenophora teres and in the data set with Septoria tritici was 90 to 100% throughout.

In the case of `OC(Cc1ccc(Cl)cc1)(Cn1cncc1Cl)C1(Cl)CC1` (centres unmarked) [Example I-77], the pest or weed control at 500 ppm lay within 90 to 100% with Uromyces appendiculatus; 90 to 100% in the data set on Botrytis cinerea; 80 to 89% in the data set on Puccinia recondita; 90 to 100% in the data set with Sphaerotheca fuliginea; 80 to 89% in the data set with Pyrenophora teres; 90 to 100% in the data set on Septoria tritici.

Regarding `CC1(C(O)(Cc2ccccc2Cl)Cn2cncc2C#N)CC1` (centres unmarked) [Example I-79], the pest or weed control at 500 ppm in the data set on Uromyces appendiculatus, in the data set with Botrytis cinerea, in the data set on Puccinia recondita, with Sphaerotheca fuliginea, with Pyrenophora teres and in the data set on Septoria tritici was 90 to 100% in each case. This compound gave a chromatographic logP in data set [1] of 2.87.

Take `CC(C)C(O)(Cc1ccccc1Cl)Cn1cncc1C#N` (centres unmarked) [Example I-82]: the pest or weed control at 500 ppm in the data set on Uromyces appendiculatus lay within 90 to 100%; with Botrytis cinerea it was 90 to 100%; in the data set on Puccinia recondita, 90 to 100%; in the data set on Sphaerotheca fuliginea it was 90 to 100%; in the data set on Pyrenophora teres, 80 to 89%; with Septoria tritici it was 90 to 100%. In data set [1], this compound came in with a chromatographic logP of 2.67.

In the case of `Cc1ccc(CC(O)(Cn2cncc2Cl)C2(Cl)CC2)c(F)c1` (centres unmarked) [Example I-108], the pest or weed control at 500 ppm in the data set on Botrytis cinerea, in the data set on Puccinia recondita, in the data set on Sphaerotheca fuliginea, in the data set on Pyrenophora teres and in the data set with Septoria tritici was 90 to 100% each time. This compound also displayed a chromatographic logP in data set [1] of 2.34.

Take `OC(Cc1ccc(F)c(F)c1)(Cn1cncc1Cl)C1(Cl)CC1` (centres unmarked) [Example I-110]: the pest or weed control at 500 ppm in the data set with Uromyces appendiculatus is 90 to 100%; in the data set on Botrytis cinerea, 90 to 100%; in the data set with Puccinia recondita, 80 to 89%; in the data set with Sphaerotheca fuliginea it was 90 to 100%; with Pyrenophora teres, 90 to 100%; in the data set on Septoria tritici, 80 to 89%. The compound further came in with a chromatographic logP in data set [1] of 2.23.

`CC(C)C(O)(Cc1ccc(Cl)cc1F)Cn1cncc1C#N` (centres unmarked) [Example I-118]: the pest or weed control at 500 ppm in the data set with Uromyces appendiculatus lay in the range of 90 to 100%; with Botrytis cinerea, 90 to 100%; in the data set on Puccinia recondita, 90 to 100%; in the data set with Sphaerotheca fuliginea, 90 to 100%; in the data set on Pyrenophora teres, 70 to 79%; with Septoria tritici, 70 to 79%. Besides, the chromatographic logP in data set [1] amounted to 2.91.

As to `CC1(C(O)(Cc2ccc(F)cc2F)Cn2cncc2C#N)CC1` (centres unmarked) [Example I-124], the pest or weed control at 500 ppm with Uromyces appendiculatus, in the data set on Botrytis cinerea, in the data set on Puccinia recondita, in the data set on Sphaerotheca fuliginea, in the data set with Pyrenophora teres and in the data set with Septoria tritici was 90 to 100% throughout. The chromatographic logP in data set [1] amounted to 2.65.

As to `N#Cc1cncn1CC(O)(Cc1ccc(F)cc1F)CC1CC1` (centres unmarked) [Example I-130], the pest or weed control at 500 ppm in the data set with Uromyces appendiculatus was 90 to 100%; in the data set on Botrytis cinerea, 90 to 100%; in the data set on Puccinia recondita it was 90 to 100%; in the data set on Sphaerotheca fuliginea, 90 to 100%; in the data set with Pyrenophora teres it was 70 to 79%; in the data set on Septoria tritici, 90 to 100%. In data set [1], this compound registered a chromatographic logP of 2.69.

For `CC1(C(O)(Cc2ccccc2F)Cn2cncc2C#N)CC1` (centres unmarked) [Example I-131], the pest or weed control at 500 ppm fell in the range of 90 to 100% in the data set with Uromyces appendiculatus; 70 to 79% with Botrytis cinerea; 90 to 100% in the data set with Puccinia recondita; 90 to 100% in the data set with Sphaerotheca fuliginea; 80 to 89% in the data set with Pyrenophora teres; 90 to 100% in the data set on Septoria tritici. In data set [1], this compound yielded a chromatographic logP of 2.68.

`CC(C)C(O)(Cc1ccccc1F)Cn1cncc1C#N` (centres unmarked) [Example I-139]: the pest or weed control at 500 ppm in the data set with Uromyces appendiculatus was in the range of 90 to 100%; in the data set on Botrytis cinerea, 90 to 100%; in the data set on Puccinia recondita, 90 to 100%; in the data set with Sphaerotheca fuliginea, 90 to 100%; in the data set with Pyrenophora teres it was 70 to 79%; in the data set with Septoria tritici, 90 to 100%. The compound further registered a chromatographic logP in data set [1] of 2.4.

Take `Cc1cccc(CC(O)(Cn2cncc2C#N)C2(Cl)CC2)c1F` (centres unmarked) [Example I-142]: the pest or weed control at 500 ppm fell in the range of 90 to 100% in the data set with Uromyces appendiculatus; 80 to 89% with Botrytis cinerea; 80 to 89% in the data set with Puccinia recondita; 90 to 100% with Sphaerotheca fuliginea; 80 to 89% in the data set on Pyrenophora teres; 70 to 79% in the data set with Septoria tritici. The compound further showed a chromatographic logP in data set [1] of 2.99.

With `CC(C)C(O)(Cc1cccc(F)c1F)Cn1cncc1C#N` (centres unmarked) [Example I-149], the pest or weed control at 500 ppm fell in the range of 90 to 100% in the data set with Uromyces appendiculatus; 70 to 79% in the data set on Botrytis cinerea; 90 to 100% in the data set with Puccinia recondita; 90 to 100% in the data set with Sphaerotheca fuliginea; 80 to 89% in the data set with Septoria tritici. Moreover, the chromatographic logP in data set [1] is 2.47.

Regarding `OC(Cc1ccccc1I)(Cn1cncc1Cl)C1(Cl)CC1` (centres unmarked) [Example I-167], the pest or weed control at 500 ppm is 90 to 100% with Uromyces appendiculatus; 90 to 100% in the data set with Botrytis cinerea; 80 to 89% in the data set with Puccinia recondita; 90 to 100% in the data set on Sphaerotheca fuliginea; 80 to 89% in the data set on Pyrenophora teres.
